Data set [1] has as its target type II dehydroquinase from Mycobacterium tuberculosis (Mycobacterium tuberculosis, UniProt P9WPX7). In words: biochemical. On the procedure:
(§1) Effect of compounds of formula I of the invention on the catalytic activity of the type II dehydroquinase from various sources. The inhibitory potency of compounds I of the invention against type II dehydroquinases from Mycobacterium tuberculoris, Streptomyces coelicolor and Helicobacter pylori were assayed as it is described in the following articles: 1) Sanchez-Sixto, C.; Prazeres, V. F. V.; Castedo, L.; Lamb, H.; Hawkins, A. R.; Gonzalez-Bello, C. J. Med. Chem. 2005, 48, 4871; 2) Prazeres, V. F. V.; Sanchez-Sixto, C.; Castedo, L.; Lamb, H.; Hawkins, A. R.; Riboldi-Tunnicliffe; Coggins, J. R.; Lapthorn, A. J.; González-Bello, C. Chem Med Chem 2007, 2, 194; and 3) Sanchez-Sixto, C.; Prazeres, V. F. V.; Castedo, L.; S. W. Suh, Lamb, H.; Hawkins, A. R.; Canada, F. J.; Jiménez-Barbero, J.; González-Bello, C. Chem Med Chem 2008, 3, 756.

Data set [2] concerns the target T1, type II dehydroquinase from Helicobacter pylori (Helicobacter pylori, UniProt Q48255).
T1 sequence (Q48255 1-167): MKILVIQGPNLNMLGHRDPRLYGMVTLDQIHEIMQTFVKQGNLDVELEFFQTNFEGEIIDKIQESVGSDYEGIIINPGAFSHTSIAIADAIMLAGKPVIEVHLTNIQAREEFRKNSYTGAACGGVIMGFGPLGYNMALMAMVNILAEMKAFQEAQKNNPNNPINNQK
In words: Inhibition of type II dehydroquinase from Helicobacter pylori (Ki). The format is biochemical. On the procedure: as §1

Data set [3] concerns the target type II dehydroquinase from Streptomyces coelicolor (Streptomyces coelicolor, UniProt P15474). In words: Inhibition of type II dehydroquinase from Streptomyces coelicolor (Ki). The format is biochemical. How it is done:
as §1

[4] abbreviates: Inhibition constants Ki, M. tuberculosis, pH = 7.0, 25° C., 50 mM Tris•HOAc.
Setting [5] is: pH = 7.0, 25° C., 50 mM Tris•HCl, read-out: Inhibition constants Ki, H. pylori.
The mark [6] stands for this setting: Inhibition constants Ki, S. coelicolor, pH = 7.0, 25° C., 50 mM Tris•HCl.
Where [7] appears, read: inhibition constants against Mycobacterium tuberculosis.
[8] abbreviates: pH = 7.0, 25° C., 50 mM Tris•HOAc, read-out: Inhibition constants Ki, M. tuberculosis.
The mark [9] stands for this setting: pH = 7.0, 25° C., 50 mM Tris•HCl, read-out: Inhibition constants Ki, S. coelicolor.
The mark [10] stands for this setting: Inhibition constants Ki, H. pylori, pH = 7.0, 25° C., 50 mM Tris•HCl.

pKi: −log10 of the molar value. Where two headings read alike, the source gives them in different places.

Sequence of type II dehydroquinase from Streptomyces coelicolor (P15474 whole entry): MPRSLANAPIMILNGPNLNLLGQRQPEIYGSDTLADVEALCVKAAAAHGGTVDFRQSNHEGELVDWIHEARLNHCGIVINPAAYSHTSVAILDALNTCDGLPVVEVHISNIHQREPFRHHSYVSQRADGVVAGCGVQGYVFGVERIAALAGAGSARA
Sequence of type II dehydroquinase from Mycobacterium tuberculosis (P9WPX7 whole entry): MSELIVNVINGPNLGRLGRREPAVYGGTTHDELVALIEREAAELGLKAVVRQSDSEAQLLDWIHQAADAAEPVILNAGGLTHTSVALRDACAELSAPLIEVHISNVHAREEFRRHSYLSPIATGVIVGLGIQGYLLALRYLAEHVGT

`C/C=C/c1cc2c(s1)[C@@H](OC(C)=O)[C@H](OC(C)=O)C[C@]2(OC(C)=O)C(=O)OC` yielded a melting point of 140 to 143 °C.
Turning to `CCOC(=O)[C@@]1(O)C[C@@H](O)[C@H](O)c2sc(CCc3ccccc3)cc21`, the melting point lay within 118 to 120 °C.
Still for that read-out and setting: to `COC(=O)[C@@]1(O)C[C@@H](O)[C@H](O)c2sc(C)cc21` belongs 87 to 92 °C.
The molecule `CC(C)c1cc2c(s1)[C@@H](O)[C@H](O)C[C@]2(O)C(=O)O` had a melting point of 125 to 127 °C.
On to `Cc1ccc(CC2C(=O)C(O)C(O)CC2(O)C(=O)O)cc1` (single isomer, unassigned) [(2R)-Ia-4], for which the pKi in data set [1] (setting [4]) was 7.05; in data set [2] (setting [5]) it was 6.60; in data set [3] (setting [6]) it was 7.66.
Regarding `COc1ccc(CC2C(=O)C(O)C(O)CC2(O)C(=O)O)cc1` (single isomer, unassigned) [(2R)-Ia-5], the “times more effective than 2,3-dehydroquinic acid, M. tuberculosis” value in data set [1] (Ki ratio) is recorded as 8000 times. Besides, in data set [1] (Km of substrate / Ki), the “times more affinity with respect of the natural substrate, M. tuberculosis” value is given as 1600 times. For the same molecule, the figures for the pKi in data set [1] (setting [7]), in data set [2] (setting [5]) and in data set [3] (setting [6]) were 7.60, 6.77 and 7.47, respectively.
For the molecule `O=C1C(O)C(O)CC(O)(C(=O)O)C1Cc1c(F)c(F)c(F)c(F)c1F` (single isomer, unassigned) [(2R)-Ia-6], the pKi in data set [1] (setting [4]) is 7.33; in data set [2] (setting [5]), 5.59; in data set [3] (setting [6]) it was 6.62.
For `O=C1C(O)C(O)CC(O)(C(=O)O)C1Cc1ccc2sccc2c1` (single isomer, unassigned) [(2R)-Ia-7] the same measures were 7.54, 6.80 and 8.40.
Consider `O=C1C(O)C(O)CC(O)(C(=O)O)C1Cc1c(F)c(F)c(F)c(F)c1F` (single isomer, unassigned) [(2S)-Ia-6], for which the pKi in data set [1] (setting [4]) was 7.13; in data set [3] (setting [6]), 8.19.
For the molecule `C=CC[C@H]1C(=O)[C@@H](O)[C@H](O)C[C@]1(O)C(=O)O` [(2R)-Ia-1, (2R)-2-allyl-3-dehydroquinic acid], the values for the pKi in data set [1] (setting [8]), in data set [2] (setting [5]) and in data set [3] (setting [6]) were 6.12, 5.03 and 4.99, respectively.
On to `CCCC1C(=O)C(O)C(O)CC1(O)C(=O)O` [(2R)-Ia-2, (2R)-2-propyl-3-dehydroquinic acid], for which the pKi in data set [1] (setting [8]) is 5.77; in data set [2] (setting [5]), 4.70; in data set [3] (setting [6]), 4.12.
On the same counts, the results for `C=CC[C@@H]1C(=O)[C@@H](O)[C@H](O)C[C@]1(O)C(=O)O` [(2S)-Ia-1, (2S)-2-allyl-3-dehydroquinic acid] are 5.73, 4.67 and 5.17.
Regarding `O=C(O)[C@]1(O)C=C(OCc2cc3ccccc3s2)[C@@H](O)[C@H](O)C1` [Ib-1, Sodium (1R, 4S, 5R)-3-(benzo[b]thiophen-2-yl)methoxy-1,4,5-trihydroxycyclohex-2-en-1-carboxylate], the pKi in data set [1] (setting [7]) was 8.49; in data set [2] (setting [5]), 6.80; in data set [3] (setting [9]), 9.32; in data set [3] (read-out: affinities in the case of S. coelicolor), 9.32.
Take `O=C(O)C1(O)CC(O)C(O)C(OCc2cc3ccccc3s2)=C1Cc1cc2ccccc2s1` (stereo not shown) [Ib-2]: the pKi in data set [1] (setting [4]) is 8.37; in data set [2] (setting [5]), 6.85; in data set [3] (setting [6]), 8.55.
`Cc1ccc2sc(COC3=C[C@@](O)(C(=O)O)C[C@@H](O)[C@@H]3O)cc2c1` [Ib-3, Sodium (1R, 4S, 5R)-1,4,5-trihydroxy-3-(5-methylbenzo[b]thiophen-2-yl)methoxycyclohex-2-en-1-carboxylate]: the values for the pKi in data set [1] (setting [4]), in data set [2] (setting [5]) and in data set [3] (setting [6]) were 7.40, 7.01 and 8.62, respectively.
Consider `Cc1ccc2sc(COC3=C(Cc4cc5cc(C)ccc5s4)[C@@](O)(C(=O)O)C[C@@H](O)[C@@H]3O)cc2c1` [Ib-4, Sodium (1R, 4S, 5R)-1,4,5-trihydroxy-3-(5-methylbenzo[b]thiophen-2-yl)methoxy-2-(5-methylbenzo[b]thiophen-2-yl)methylcyclohex-2-en-1-carboxylate], for which the values for the pKi in data set [1] (setting [8]), in data set [2] (setting [5]) and in data set [3] (setting [6]) were 6.72, 7.15 and 7.89, respectively.
For the molecule `C=CCC1=C(OCc2cc3ccccc3s2)[C@@H](O)[C@H](O)C[C@]1(O)C(=O)O` [Ib-5, Sodium (1R, 4S, 5R)-2-allyl-3-(benzo[b]thiophen-2-yl)methoxy-1,4,5-tri-hydroxycyclohex-2-en-1-carboxylate], the pKi in data set [1] (setting [8]) is 5.91; in data set [2] (setting [5]) it was 5.96; in data set [3] (setting [6]) it was 7.82.
Consider `O=C(O)[C@]1(O)C=C(OCc2ccc3sccc3c2)[C@@H](O)[C@H](O)C1` [Ib-7, Sodium (1R,4S,5R)-1,4,5-trihydroxy-3[(benzo[b]thiophen-5-yl)methoxy]cyclohex-2-en-1-carboxylate], for which the figures for the pKi in data set [1] (setting [8]), in data set [2] (setting [5]) and in data set [3] (setting [6]) were 7.51, 6.78 and 9.52, respectively.
With `O=C(O)[C@@]1(O)C[C@@H](O)[C@H](O)C(OCc2cccs2)=C1Cc1cccs1` [Ib-8], the figures for the pKi in data set [2] (setting [5]) and in data set [3] (setting [9]) were 4.82 and 6.85, respectively.
On to `O=C(O)[C@@]1(O)C[C@@H](O)[C@H](O)C(OCc2ccc3ccccc3c2)=C1Cc1ccc2ccccc2c1` [Ib-11, Sodium (1R,4S,5R)-1,4,5-trihydroxy-3-(naphth-2-yl)methoxy-2-(naphth-2-yl)methylcyclohex-2-en-1-carboxylate], for which the pKi in data set [3] (setting [9]) is 7.49.
`O=C(O)[C@@]1(O)C[C@@H](O)[C@H](O)C(OCc2cccs2)=C1Cc1cc2ccccc2s1` [Ib-12, Sodium (1R,4S,5R)-1,4,5-trihydroxy-3-(thien-2-yl)methoxy-2-(benzo[b]thiophen-2-yl)methylcyclohex-2-en-1-carboxylate]: the figures for the pKi in data set [2] (setting [5]) and in data set [3] (setting [6]) were 7.34 and 6.55, respectively.
As for `O=C([O-])[C@@]1(O)C[C@@H](O)[C@H](O)C(OCc2ccc3sccc3c2)=C1Cc1cccs1.[Na+]` [Ib-13, Sodium (1R,4S,5R)-1,4,5-trihydroxy-3-(benzo[b]thiophen-5-yl)methoxy-2-(thien-2-yl)methylcyclohex-2-en-1-carboxylate], the “times more effective than the 2,3-dehydroquinic acid, H. pylori” value in data set [2] (Ki ratio) worked out at 16.190 times. Also, the “times more affinity with respect of the natural substrate, H. pylori” value in data set [2] (Km of substrate / Ki) is reported as “about 21.000 times”. Also, the pKi is 7.68 in data set [2] (read-out: affinities in the case of H. pylori) and 6.55 in data set [3] (setting [6]).
`O=C(O)[C@]1(O)C=C(OCc2ccc3ccccc3c2)[C@@H](O)[C@H](O)C1` [Ib-.10, Sodium (1R,4S,5R)-1,4-trihydroxy-3-(2-naphyl)methoxycyclohex-2-en-1-carboxylate]: in data set [3] (setting [9]), the pKi was > 9.59.
As to `Cc1cc2c(s1)[C@@H](O)[C@H](O)C[C@]2(O)C(=O)O` [Ic-2, (4R, 6R, 7S)-4,6,7-trihydroxy-2-methyl-4,5,6,7-tetrahydrobenzo[b]thiophen-4-carboxylic acid], the pKi was 6.40 in data set [1] (setting [4]), 5.80 in data set [2] (setting [10]) and 5.50 in data set [3] (setting [9]).
As to `C=Cc1cc2c(s1)[C@@H](O)[C@H](O)C[C@]2(O)C(=O)O` [Ic-3, (4R, 6R, 7S)-4,6,7-trihydroxy-2-vinyl-4,5,6,7-tetrahydrobenzo[b]thiophen-4-carboxylic acid], the pKi is 7.28 in data set [1] (setting [4]), 5.90 in data set [2] (setting [10]) and 6.09 in data set [3] (setting [9]).
For `C/C=C/c1cc2c(s1)[C@@H](O)[C@H](O)C[C@]2(O)C(=O)O` [Ic-4, (4R, 6R, 7S)-4,6,7-trihydroxy-2-[(E)-prop-1-enyl]-4,5,6,7-tetrahydrobenzo[b]thiophen-4-carboxylic acid] the same measures were 7.01, 6.46 and 7.03.
With `C=C(C)c1cc2c(s1)[C@@H](O)[C@H](O)C[C@]2(O)C(=O)O` [Ic-5], the pKi was 6.07 in data set [1] (setting [4]), 4.42 in data set [2] (setting [10]) and 5.73 in data set [3] (setting [9]).
`C=C(c1ccccc1)c1cc2c(s1)[C@@H](O)[C@H](O)C[C@]2(O)C(=O)O` [Ic-10, (4R,6R,7S)-4,6,7-trihydroxy-2-(1-phenylvinyl)-4,5,6,7-tetrahydro-benzo[b]thiophen-4-carboxylic acid]: the results for the pKi in data set [2] (setting [10]) and in data set [3] (setting [9]) were 4.69 and 5.33, respectively.
Take `O=C(O)[C@@]1(O)C[C@@H](O)[C@H](O)c2sc(CCc3ccccc3)cc21` [Ic-12, (4R,6R,7S)-4,6,7-trihydroxy-2-phenethyl-4,5,6,7-tetrahydrobenzo[b]thiophene-4-carboxylic acid]: the pKi in data set [2] (setting [10]) was 5.77; in data set [3] (setting [9]), 7.34.
As for `CCCc1cc2c(s1)[C@@H](O)[C@H](O)C[C@]2(O)C(=O)O` [Ic-13, (4R,6R,7S)-4,6,7-trihydroxy-2-propyl-4,5,6,7-tetrahyclrobenzo[b]thiophene-4-carboxylic acid], the pKi is 6.92 in data set [2] (setting [10]) and 7.66 in data set [3] (setting [9]).

The values are drawn from patent publication US20110313032A1, “COMPETITIVE INHIBITORS OF TYPE II DEHYDROQUINASE ENZYME” (priority 2008, published 2011).
